How the values were obtained:
[1] = Oxidation of deoxyribose to malonyldialdehyde by peroxynitrite; details: pH 7.4, T=25°C, yield relative to [PN]0; PN alone 1.7%
Experimental: 1 mL of 2.8% trichloroacetic acid and 1 mL of 1% thiobarbituric acid in 0.1 M NaOH adjusted to pH 3.5 were sequentially added to 1 mL samples and the absorbance spectra at 532 nm due to the absorbance maximum of the MDA-thiobarbiturate product were recorded as a function of time (0-22 hr) at 24° C.
(§1) These particular molecules were specifically chosen because they represent targets of hydroxyl radical, nitrogen dioxide, and of oxygen transfer reagents. In addition, their reaction products are easily identified and quantified by established methods.

[2] = Nitration of L-tyrosine by peroxynitrite; details: pH 7.4, T=25°C, yield relative to [PN]0; PN alone 11%
Experimental: e) Nitration of L-tyrosine: Peroxynitrite (0.44 μmol) was reacted with 0.16 μmol of L-tyrosine in 2 mL phosphate buffer solution, pH 7.4 at T=24° C. for 5 min. The concentration of such formed nitrotyrosine was estimated by recording the 438 nm absorbance (ε=4200 M^−1cm^−1) of basified solutions (via the addition of 0.2 ml of 7.8 M NaOH).
as §1

[3] = Oxidation of DMSO by copper sulfate/ascorbate; details: CuSO4/ascorbate as initiator; 50 μM corrole, 18 hr
Experimental: Reaction was initiated by adding a mixture of CuSO4 and phenanthroline (final concentration of 8 μM for each), followed by sodium ascorbate (500 μM). […]
Additional experiments were carried out by using CuSO4/ascorbate as the initiator of reactive oxygen species (by the complex Fenton-type oxidation that produces hydroxyl radical via the involvement of superoxide anion radical and hydrogen peroxide), as to bridge between the results of the small molecules and those obtained by oxidation of LDL.

[4] = Decomposition of peroxynitrite, comparison with punicalagin; details: for Minimal concentration required for reducing the half lifetime of peroxynitrite by 50%: calculated from rate constants
Experimental: For initial assessment of possible superiority of the metallocorroles relative to natural antioxidants, we have determined the effect of excess (45-135 μM) punicalagin—the active polyphenolic hydrolysable tannin ingredient of pomegranate juice (Tzulker et al., 2007), on decomposition of peroxynitrite (40 μM).

LDL = assay: Oxidation of LDL by copper sulfate; type: biochemical, human; details: for Increased damage (TBARS): corrole 0.5 μM
Experimental: (§2) Oxidation was initiated by addition of a freshly prepared CuSO4 solution (5 μM) and incubation at 37° C. under air in a shaking water bath was continued for 2 h (LDL) or 5 h (HDL). Lipoprotein oxidation was determined by measuring the amount of TBARS (Aviram et al. 2001).
(§3) Conjugated dienes formation was continuously monitored for 165 min while TBARS and lipid peroxides (Aviram et al. 2001) were measured after 15, 30, 45, 60, 75, 90, 120 and 165 minutes.
The more commonly used copper-induced LDL oxidation protocol was also applied. […] This may be appreciated from FIGS. 3A-3C, which show the time course of stepwise formation of conjugated dienes, hydroperoxides, and aldehydes (2.5 μM of metal corrole). […] The total amount of hydroperoxides rapidly reached a maximum at 45 min (due to its subsequent transformation to the final aldehyde products) and the total concentration of aldehydes was increased by a factor of 3 relative to the control experiment. […] Similar results were obtained for HDL oxidation.
The dependence of LDL oxidation on the corrole concentration was examined by analyses performed 2 hours after oxidation initiation by the copper ion (FIG. 4A).

HDL = assay: Oxidation of HDL by copper sulfate; type: biochemical, human; details: for Effect on conjugated dienes formation in HDL: 2.5 μM corrole, 5 μM CuSO4
Experimental: as §2, §3
The results for the copper-induced oxidation of HDL were very similar to the results obtained for LDL. […] It should be mentioned that the damage measured for HDL is lower than that measured for LDL, due to the lower lipid content of HDL.

J-774 macrophages = assay: Corrole-mediated cholesterol efflux from J-774 macrophages; type: cell-based, Murine; details: lipoprotein-free medium, 10, 25 or 50 μM, 4 hour, dose-dependent
Experimental: Murine J-774 cells (1×10^6/mL) were plated in 24-well plates for 24 hours, then washed and incubated for 1 hour in serum-free DMEM that contained ^3H-cholesterol (2 μCi/mL) and BSA (0.2%). […] After a 4-hour incubation at 37° C. to permit efflux of ^3H-cholesterol from the cells into the medium, 500 μL of the medium was collected. The cells were washed with PBS, 1 mL of 0.1 N NaOH was added to the cells and 500 μL was collected the next day. Medium and cellular ^3H-cholesterol were determined by liquid scintillation counting (LSC). […] Corrole-mediated cholesterol efflux was calculated after subtraction of the non-specific efflux obtained in cells incubated in the absence of corroles.
A still further indication for a favorable alteration of cellular cholesterol transport by metallocorroles was obtained by studying cholesterol efflux from J-774 macrophages in a lipoprotein-free medium. The iron complex (but not the manganese and gallium complexes) of corrole 1 increased the cholesterol efflux by up to 20% in a dose-dependent fashion.

[5] = system: Apolipoprotein E deficient mice (E^0 mice); assay: Histopathology of aortic atherosclerosis lesions in E^0 mice; type: in vivo; details: oral, drinking water 0.04 mM (0.2 mg per mouse per day), 10 weeks; for Decrease in average lesion area relative to the control group: 1-Fe: mean of the four mice with lesions
Text: At the end of the experiment, the mice were sacrificed and each heart and entire aorta were rapidly dissected out from each mouse and immersion-fixed in 3% glutaraldehyde in 0.1 mol/L sodium cacodylate buffer with 0.01% calcium chloride, pH 7.4, at room temperature. The first 4 mm of the aortic arch was stained with osmium tetroxide, which colors all the lipid components a dark brown-black color thus enabling delineation of the lesion with greater accuracy. The blocks were embedded in epon resin and thin transverse sections were cut to allow greater resolution of the lesion details. The area covered by the lesion was determined by image analysis (Coleman et al., 2006).
Two of the mice receiving that treatment did actually not develop atherosclerotic lesions at all and the average lesion area for the other four mice was 60% smaller than that obtained for the control mice. These observations are much better than those obtained by other methods, including E^0 mice that were treated by natural anti-oxidants (48% reduction when consuming red wine (Hayek et al., 1997; Fuhrman et al., 1995) and 44% for pomegranate juice (Aviram et al., 2000)) or those that were intraperitoneally-treated with different synthetic catalysts for decomposition of reactive oxygen species.

[6] = system: Apolipoprotein E deficient mice (E^0 mice); assay: Serum total cholesterol in E^0 mice; type: in vivo; details: drinking water 0.04 mM (0.2 mg per mouse per day), 10 weeks
Text: a) For atherosclerosis evaluation: At an age of about 10 weeks, 24 E^0 mice were randomly divided into 4 groups of 6 mice each.
The sacrificed mice were also examined with regard to other factors relevant to the development of atherosclerosis.

Compound | Yield of malonyldialdehyde from deoxyribose [1] | Yield of L-nitrotyrosine from L-tyrosine [2] | Inhibition of the oxidation of DMSO to malonaldehyde [3] | Times more effective than punicalagin in peroxynitrite decomposition [4] | Minimal concentration required for reducing the half lifetime of peroxynitrite by 50% [4] | Increased damage (TBARS) (LDL; 2 hours after CuSO4) | Effect on conjugated dienes formation in HDL (HDL) | Increase of cholesterol efflux from J-774 macrophages (J-774 macrophages) | Decrease in average lesion area relative to the control group [5] | Total serum cholesterol lower than in the control group [6] | further results
O=S(=O)(O)c1cc2[n]3c1C(c1c(F)c(F)c(F)c(F)c1F)=C1C=CC4=[N+]1[Fe-]31[n]3c(cc(S(=O)(=O)O)c3-2)C(c2c(F)c(F)c(F)c(F)c2F)=c2ccc([n]21)=C4c1c(F)c(F)c(F)c(F)c1F (centres unmarked) [1-Fe, 5,10,15-tris(pentafluorophenyl)-2,17-bis(sulfonic acid)-corrolato iron(III)] | 0% | 11% | completely | 5000 times | 0.05 mol % | minor increase in TBARS | completely eliminated their formation | increases | 60% | 40% | Aldehydes formation after 24 hours (LDL; 2.5 μM corrole, 5 μM CuSO4): no aldehydes were formed; Damage by all three criteria (conjugated dienes, hydroperoxides, aldehydes) (LDL; 2.5 μM corrole, 5 μM CuSO4): practically no damage; Fold by which the manganese porphyrin concentration for 100% inhibition exceeds the 1-Fe concentration for full inhibition (LDL; 100 μM vs 2.5 μM): 40 fold; Concentration giving full inhibition of LDL oxidation (LDL; copper-induced LDL oxidation): 2.5 µM; Effect on TBARS formation (LDL; corrole 2.5 μM and higher, 2 hours after CuSO4): complete inhibition; Effect on TBARS formation in HDL (HDL; corrole 2.5 μM and higher, 5 hr after CuSO4): protective effect; Increase of cholesterol efflux from J-774 macrophages (J-774 macrophages; listed as iron complex): up to 20%; Mice (of six) that did not develop atherosclerotic lesions at all [5]: Two and two
O=S(=O)(O)c1cc2[n]3c1C(c1c(F)c(F)c(F)c(F)c1F)=C1C=CC4=[N+]1[Mn-]31[n]3c(cc(S(=O)(=O)O)c3-2)C(c2c(F)c(F)c(F)c(F)c2F)=c2ccc([n]21)=C4c1c(F)c(F)c(F)c(F)c1F (centres unmarked) [1-Mn, 5,10,15-tris(pentafluorophenyl)-2,17-bis(sulfonic acid)-corrolato manganese(III)] | 0% | 0% | 65% | 100 times | 2.5 mol % | about 150% | shortened the delay time | not | 17% | 26% | Factor of increase of total concentration of aldehydes relative to control (LDL; 2.5 μM corrole, 5 μM CuSO4): 3; Time at which total hydroperoxides reached a maximum (LDL; 2.5 μM corrole, 5 μM CuSO4): 45 min; Delay in formation of conjugated dienes (LDL; 2.5 μM corrole, 5 μM CuSO4, control 30 minutes): 15 min; Increase of TBARS formation in HDL (HDL; all concentrations measured, 5 hr after CuSO4): about 2 folds

Source: US8791099B2, “Transition metal complexes of corroles for preventing cardiovascular diseases or disorders” (Technion Research and Development Foundation Ltd., priority 2007, dated 2014)
